Test results as given in ChEMBL document CHEMBL1130674, “N-arylrolipram derivatives as potent and selective PDE4 inhibitors” (1998).

How the values were obtained:
Rattus norvegicus [1] = assay: Eosinophil accumulation in sensitized brown norway rats at 3.2 mg/kg dose (No of rats = 5); assay type: functional
Homo sapiens = species on record: Homo sapiens; assay: Inhibition of fMLP induced oxidative burst in human eosinophils.; assay type: functional
PBMC [2] = assay: Inhibition of anti-CD3 induced IL-4 release by human peripheral blood mononuclear cells.; assay type: functional
PBMC [3] = assay: Inhibition of anti-CD3 induced T-cell proliferation in human peripheral blood mononuclear cells.; assay type: functional
PBMC [4] = assay: Inhibition of LPS induced TNF-alpha release by human peripheral blood mononuclear cells.; assay type: functional
[5] = target: Phosphodiesterase 3 (Homo sapiens) (UniProt Q14432+Q13370); assay: Inhibition of phosphodiesterase (PDE) 3; assay type: protein assay
[6] = target: 3',5'-cyclic-AMP phosphodiesterase 4D (Homo sapiens) (UniProt Q08499); assay: Inhibition of phosphodiesterase (PDE) 4D
Sequence of 3',5'-cyclic-AMP phosphodiesterase 4D (Homo sapiens) (Q08499 whole entry): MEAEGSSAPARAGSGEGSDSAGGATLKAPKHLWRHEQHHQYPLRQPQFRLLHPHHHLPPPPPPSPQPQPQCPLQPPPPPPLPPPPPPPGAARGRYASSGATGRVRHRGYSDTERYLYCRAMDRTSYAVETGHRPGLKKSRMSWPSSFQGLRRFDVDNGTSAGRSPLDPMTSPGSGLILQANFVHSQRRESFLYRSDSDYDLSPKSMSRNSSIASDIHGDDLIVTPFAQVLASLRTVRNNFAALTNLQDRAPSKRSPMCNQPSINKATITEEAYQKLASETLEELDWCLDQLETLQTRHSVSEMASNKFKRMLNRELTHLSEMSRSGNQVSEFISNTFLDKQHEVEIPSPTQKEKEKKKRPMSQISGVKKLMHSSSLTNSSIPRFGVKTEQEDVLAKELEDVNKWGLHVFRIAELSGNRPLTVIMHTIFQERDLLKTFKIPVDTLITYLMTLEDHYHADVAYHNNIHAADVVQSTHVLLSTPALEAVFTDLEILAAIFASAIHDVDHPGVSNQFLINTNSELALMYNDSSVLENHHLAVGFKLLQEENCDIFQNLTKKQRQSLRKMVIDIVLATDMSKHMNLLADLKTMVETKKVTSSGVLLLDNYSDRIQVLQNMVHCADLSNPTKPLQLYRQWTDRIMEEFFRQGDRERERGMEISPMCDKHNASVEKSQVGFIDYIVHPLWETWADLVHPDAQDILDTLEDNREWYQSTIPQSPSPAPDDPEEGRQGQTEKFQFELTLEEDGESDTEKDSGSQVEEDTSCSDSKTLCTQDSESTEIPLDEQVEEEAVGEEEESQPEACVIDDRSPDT

PBMC [7] = assay: Inhibition of anti-CD3 induced IFN-gamma-release in human peripheral blood mononuclear cells.; assay type: functional
[8] = target: T1, 3',5'-cyclic-AMP phosphodiesterase 4B (Rattus norvegicus) (UniProt P14646); assay: Inhibition of phosphodiesterase (PDE) 4B
T1 sequence (whole entry): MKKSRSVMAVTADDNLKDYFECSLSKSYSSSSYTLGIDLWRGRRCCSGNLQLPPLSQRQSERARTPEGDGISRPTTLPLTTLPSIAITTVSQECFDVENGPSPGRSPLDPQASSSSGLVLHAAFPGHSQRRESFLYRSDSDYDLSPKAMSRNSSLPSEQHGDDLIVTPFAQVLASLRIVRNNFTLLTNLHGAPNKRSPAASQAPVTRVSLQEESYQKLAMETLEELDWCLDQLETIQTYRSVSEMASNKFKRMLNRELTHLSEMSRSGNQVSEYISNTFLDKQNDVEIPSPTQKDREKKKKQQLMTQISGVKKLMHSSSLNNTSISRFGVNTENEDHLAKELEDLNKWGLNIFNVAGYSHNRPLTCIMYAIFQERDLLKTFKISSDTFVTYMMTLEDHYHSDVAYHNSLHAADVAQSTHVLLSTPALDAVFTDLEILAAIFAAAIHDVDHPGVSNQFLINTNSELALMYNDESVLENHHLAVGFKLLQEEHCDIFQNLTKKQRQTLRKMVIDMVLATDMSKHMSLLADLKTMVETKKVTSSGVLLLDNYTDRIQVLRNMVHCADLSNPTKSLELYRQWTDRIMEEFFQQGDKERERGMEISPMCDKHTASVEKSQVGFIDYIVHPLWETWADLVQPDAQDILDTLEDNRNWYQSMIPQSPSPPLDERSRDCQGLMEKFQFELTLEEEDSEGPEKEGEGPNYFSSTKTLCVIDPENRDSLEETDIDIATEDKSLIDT

[9] = target: 3',5'-cyclic-AMP phosphodiesterase 4A (Homo sapiens) (UniProt P27815)
Sequence of 3',5'-cyclic-AMP phosphodiesterase 4A (Homo sapiens) (P27815 whole entry): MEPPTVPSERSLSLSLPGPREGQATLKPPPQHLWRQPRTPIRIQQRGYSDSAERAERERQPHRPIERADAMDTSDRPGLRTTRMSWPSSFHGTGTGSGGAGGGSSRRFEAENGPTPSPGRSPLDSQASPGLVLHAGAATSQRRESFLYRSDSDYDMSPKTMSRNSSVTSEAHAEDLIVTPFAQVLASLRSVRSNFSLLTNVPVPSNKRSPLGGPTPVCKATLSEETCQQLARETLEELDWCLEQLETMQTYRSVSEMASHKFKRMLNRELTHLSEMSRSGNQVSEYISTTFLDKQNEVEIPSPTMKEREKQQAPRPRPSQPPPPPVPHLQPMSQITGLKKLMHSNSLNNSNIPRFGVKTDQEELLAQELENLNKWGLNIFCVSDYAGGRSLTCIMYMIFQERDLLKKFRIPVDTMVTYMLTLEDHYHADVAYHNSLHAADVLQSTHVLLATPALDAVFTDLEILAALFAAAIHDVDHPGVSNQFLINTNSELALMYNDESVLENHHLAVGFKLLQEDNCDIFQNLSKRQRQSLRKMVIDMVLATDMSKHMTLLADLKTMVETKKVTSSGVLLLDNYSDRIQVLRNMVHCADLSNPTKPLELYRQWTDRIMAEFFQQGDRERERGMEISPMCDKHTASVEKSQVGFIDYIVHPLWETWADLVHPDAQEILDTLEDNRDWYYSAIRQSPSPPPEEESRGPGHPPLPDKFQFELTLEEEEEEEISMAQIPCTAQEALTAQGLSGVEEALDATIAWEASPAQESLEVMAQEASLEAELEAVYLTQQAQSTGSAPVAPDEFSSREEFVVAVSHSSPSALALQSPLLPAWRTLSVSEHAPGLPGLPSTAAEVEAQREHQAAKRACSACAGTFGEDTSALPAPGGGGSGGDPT
Description: Inhibition of phosphodiesterase (PDE) 4A

[10] = Inhibition of rolipram binding
Rattus norvegicus [11] = assay: Eosinophil accumulation in sensitized brown norway rats at 1 mg/kg dose (No of rats = 5); assay type: functional

Row | pIC50 (Homo sapiens) | pIC50 [5] | pIC50 [6] | pIC50 [8] | pIC50 [9] | pIC50 [10] | SMILES | Activation (Rattus norvegicus [1]) [mU ml-1] | pIC50 (PBMC [2]) | pIC50 (PBMC [3]) | pIC50 (PBMC [4]) | pIC50 (PBMC [7]) | Activation (Rattus norvegicus [11]) [mU ml-1]
1 | 6.6 | < 4 | 7.9 | 7.7 | 7.9 | 7.5 | COc1cccc(COc2cc(C(=O)O)cc(N3CC(c4ccc(OC)c(OC5CCCC5)c4)CC3=O)c2)c1 (stereo unspecified) | 5 | 6.6 | 7.2 | 7.4 | 7.5 | 
2 |  | < 4 | 8.1 | 8.6 | 8.2 | 8.1 | COc1cccc(COc2cccc(N3CC(c4ccc(OC)c(OC5CCCC5)c4)CC3=O)c2)c1 (stereo unspecified) |  |  |  |  |  | 
3 | 7.3 | < 4 | 8.8 | 8.3 | 8.6 | 8.3 | COc1cccc(COc2cc(C(=O)NN(C)C)cc(N3CC(c4ccc(OC)c(OC5CCCC5)c4)CC3=O)c2)c1 (stereo unspecified) |  | 7.6 | 7.3 | 7.7 | 7.8 | 10
4 | 6.1 |  |  |  |  |  | COc1ccc(C2CNC(=O)C2)cc1OC1CCCC1 (stereo unspecified) [ROLIPRAM] |  | 6.3 |  | 7.1 | 5.6 | 
